{
  "source": "paper PMC5827971",
  "about": "(Cell, 2017)",
  "key": {"CLYBL [1]": {"target": "T1, CLYBL (Homo sapiens, UniProt Q8N0X4)", "T1 sequence (Q8N0X4 23-340)": "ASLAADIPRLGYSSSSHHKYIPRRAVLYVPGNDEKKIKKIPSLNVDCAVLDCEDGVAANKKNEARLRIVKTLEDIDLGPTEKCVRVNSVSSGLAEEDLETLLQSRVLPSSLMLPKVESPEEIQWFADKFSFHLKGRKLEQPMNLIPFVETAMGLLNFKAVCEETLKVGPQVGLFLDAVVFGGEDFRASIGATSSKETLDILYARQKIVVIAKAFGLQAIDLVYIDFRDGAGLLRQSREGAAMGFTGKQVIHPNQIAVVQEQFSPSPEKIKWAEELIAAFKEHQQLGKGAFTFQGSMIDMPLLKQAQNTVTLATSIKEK", "test": "HPLC-UV discontinuous assay, CoASH formation", "assay_type": "biochemical", "conditions": "20 mM glyoxylate, 2.5-200 µM acyl-CoA, 20 mM Tris pH 7.5, 5 mM MgCl2, 1 mM TCEP, 37 °C"}, "CLYBL [2]": {"target": "T1, CLYBL", "test": "HPLC-UV discontinuous assay, acetyl-CoA formation", "assay_type": "biochemical", "conditions": "citramalyl-CoA lyase; 0.625-80 µM substrate, 20 mM Tris pH 7.5, 5 mM MgCl2, 1 mM TCEP, 37 °C"}},
  "data": [
    {"smiles": "CC(=O)SCCNC(=O)CCNC(=O)[C@H](O)C(C)(C)COP(=O)(O)OP(=O)(O)OC[C@H]1O[C@@H](n2cnc3c(N)ncnc32)[C@H](O)[C@@H]1OP(=O)(O)O", "note": "[acetyl-CoA]", "values": [
      {"measurement": "KM", "setting": "CLYBL [1]; malate synthase", "result": "KM values for acetyl-CoA or propionyl-CoA, the substrates in the forward reaction"}
    ]},
    {"smiles": "CC(C)(COP(=O)(O)OP(=O)(O)OC[C@H]1O[C@@H](n2cnc3c(N)ncnc32)[C@H](O)[C@@H]1OP(=O)(O)O)[C@@H](O)C(=O)NCCC(=O)NCCSC(=O)C[C@](C)(O)C(=O)O", "note": "[citramalyl-CoA]", "values": [
      {"measurement": "KM", "setting": "CLYBL [2]", "result": "The KM value for citramalyl-CoA is comparable to the KM values for acetyl-CoA or propionyl-CoA"}
    ]},
    {"smiles": "CCC(=O)SCCNC(=O)CCNC(=O)[C@H](O)C(C)(C)COP(=O)(O)OP(=O)(O)OC[C@H]1O[C@@H](n2cnc3c(N)ncnc32)[C@H](O)[C@@H]1OP(=O)(O)O", "note": "[propionyl-CoA]", "values": [
      {"measurement": "KM", "setting": "CLYBL [1]; methylmalate synthase", "result": "KM values for acetyl-CoA or propionyl-CoA, the substrates in the forward reaction"}
    ]}
  ]
}
